One compound from patent US20160271126A1, “PHARMACEUTICAL COMPOSITION” (Hoffmann-La Roche Inc., priority 2013, published 2016) can be followed below.

Structures are written as SMILES.

One data set is described as follows: Solubility of bitopertin. In kind it is physicochemical. The text has this:
(§1) Being a BCS 2 molecule (according to the Biopharmaceutics Classification System, wherein the molecule has high permeability and low solubility), the API particles size distribution has been identified as a major critical quality attribute of the drug substance. […] Thus, micronized API was selected for development of a suitable formulation.

Data set [1] in a line: Biopharmaceutics Classification System class. Type of data set: physicochemical. The arrangement: key: 2: the molecule has high permeability and low solubility.
From the text: as §1

`C[C@H](Oc1ccc(S(C)(=O)=O)cc1C(=O)N1CCN(c2ncc(C(F)(F)F)cc2F)CC1)C(F)(F)F` [Bitopertin]: the “solubility in aqueous buffers and in water” value in the data set “Solubility of bitopertin” (aqueous buffers and water) is recorded as “practically insoluble”. The “solubility in polar organic solvents” value in “Solubility of bitopertin” (polar organic solvents) is listed as “freely soluble”. The “BCS class (Biopharmaceutics Classification System)” value in data set [1] amounted to 2.
